Biological target: T1, Kv7.2/7.3 (Homo sapiens, UniProt O43525+O43526)
T1 construct: Kv7.2 tetracycline-induced, Kv7.3 constitutive
Test: Kv7.2/7.3 Activation Assay (Thallium Flux Assay)
Assay type: cell-based
Settings: hKV7.2/7.3 cell line; test compound at single concentration of 10 μM; fluorescence at 90 sec normalized to positive control (retigabine, 30 μM)
Procedure, shortened: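 Human Kv7.2/7.3 cells with Kv7.2 induced overnight by 10 ng/mL tetracycline were loaded with FluxOR II Green for 1 h at 37 °C. Compounds were tested at 10 μM in 0.1% DMSO/extracellular solution, pH 7.4. Thallium/potassium stimulus was added after a 15 s baseline, and 90 s fluorescence (ex 475/em 530 nm) was normalized to 30 μM retigabine.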

Structure (SMILES)	Kv7.2/7.3 Activity
Cn1nc(NC(=O)OC2CC(F)(F)C2)c(C2CCC2)c1-c1ccc(OC(F)(F)F)cc1 [Compound 281, 3,3-difluorocyclobutyl (4-cyclobutyl-1-methyl-5-(4-(trifluoromethoxy)phenyl)-1H-pyrazol-3-yl)carbamate]	++ (“++” High Activity ≥ 0.7)
Cn1nc(NC(=O)C2CC(F)(F)C2)c(C2CCC2)c1C1COC1 [Compound 282, N-(4-cyclobutyl-1-methyl-5-(oxetan-3-yl)-1H-pyrazol-3-yl)-3,3-difluorocyclobutane-1-carboxamide]	− (“−” No Activity < 0.15)
Cn1nc(NC(=O)C[C@@H]2CC(F)(F)C2(F)F)c(C2CCC2)c1-c1ccc(OC(F)F)nc1 [Compound 283, (R)-N-(4-cyclobutyl-5-(6-(difluoromethoxy)pyridin-3-yl)-1-methyl-1H-pyrazol-3-yl)-2-(2,2,3,3-tetrafluorocyclobutyl)acetamide]	++ (“++” High Activity ≥ 0.7)
Cn1nc(NC(=O)C[C@@H]2CC(F)(F)C2(F)F)c(C2(C)CCC2)c1-c1ccc(F)cc1 [Compound 284, (R)-N-(5-(4-fluorophenyl)-1-methyl-4-(1-methylcyclobutyl)-1H-pyrazol-3-yl)-2-(2,2,3,3-tetrafluorocyclobutyl)acetamide]	++ (“++” High Activity ≥ 0.7)
Cn1nc(NC(=O)NC2CC(F)(F)C2)c(C2CCC2)c1-c1ccc(OC(F)(F)F)cc1 [Compound 285, 1-(4-cyclobutyl-1-methyl-5-(4-(trifluoromethoxy)phenyl)-1H-pyrazol-3-yl)-3-(3,3-difluorocyclobutyl)urea]	+ (“+” Moderate Activity 0.15-0.7)
Cn1nc(NC(=O)C2CC(F)(F)C2)c(C2(C)CCC2)c1-c1ccc(F)cc1 [Compound 286, 3,3-difluoro-N-(5-(4-fluorophenyl)-1-methyl-4-(1-methylcyclobutyl)-1H-pyrazol-3-yl)cyclobutane-1-carboxamide]	++ (“++” High Activity ≥ 0.7)
Cn1nc(NC(=O)OC2CC(F)(F)C2)c(C2CCC2)c1-c1cc(F)c(F)c(F)c1 [Compound 287, 3,3-difluorocyclobutyl (4-cyclobutyl-1-methyl-5-(3,4,5-trifluorophenyl)-1H-pyrazol-3-yl)carbamate]	++ (“++” High Activity ≥ 0.7)
Cn1nc(NC(=O)NC2CC(F)(F)C2)c(C2CCC2)c1-c1cc(F)c(F)c(F)c1 [Compound 288, 1-(4-cyclobutyl-1-methyl-5-(3,4,5-trifluorophenyl)-1H-pyrazol-3-yl)-3-(3,3-difluorocyclobutyl)urea]	++ (“++” High Activity ≥ 0.7)
Cn1nc(NC(=O)C2CC(F)(F)C2)c(C2CCC2)c1C1CCC(F)(F)CC1 [Compound 289, N-(4-cyclobutyl-5-(4,4-difluorocyclohexyl)-1-methyl-1H-pyrazol-3-yl)-3,3-difluorocyclobutane-1-carboxamide]	++ (“++” High Activity ≥ 0.7)
Cn1nc(NC(=O)NC2CC(F)(F)C2)c(C2CCC2)c1C1CC(F)(F)C1 [Compound 290, 1-(4-cyclobutyl-5-(3,3-difluorocyclobutyl)-1-methyl-1H-pyrazol-3-yl)-3-(3,3-difluorocyclobutyl)urea]	++ (“++” High Activity ≥ 0.7)
CN(CC(F)(F)F)C(=O)Nc1nn(C)c(C2CC(F)(F)C2)c1C1CCC1 [Compound 291, 3-(4-cyclobutyl-5-(3,3-difluorocyclobutyl)-1-methyl-1H-pyrazol-3-yl)-1-methyl-1-(2,2,2-trifluoroethyl)urea]	++ (“++” High Activity ≥ 0.7)
Cn1nc(NC(=O)OC2CC(F)(F)C2)c(C2CCC2)c1C1CCC(F)(F)CC1 [Compound 292, 3,3-difluorocyclobutyl (4-cyclobutyl-5-(4,4-difluorocyclohexyl)-1-methyl-1H-pyrazol-3-yl)carbamate]	++ (“++” High Activity ≥ 0.7)
Cn1nc(NC(=O)NCC(F)(F)F)c(C2CCC2)c1C1CC(F)(F)C1 [Compound 293, 1-(4-cyclobutyl-5-(3,3-difluorocyclobutyl)-1-methyl-1H-pyrazol-3-yl)-3-(2,2,2-trifluoroethyl)urea]	++ (“++” High Activity ≥ 0.7)
Cn1nc(NC(=O)NCC(C)(C)C)c(C2CCC2)c1C1CC(F)(F)C1 [Compound 294, 1-(4-cyclobutyl-5-(3,3-difluorocyclobutyl)-1-methyl-1H-pyrazol-3-yl)-3-neopentylurea]	++ (“++” High Activity ≥ 0.7)
Cn1nc(NC(=O)OC2CCC2)c(C2CCC2)c1C1CC(F)(F)C1 [Compound 295, cyclobutyl (4-cyclobutyl-5-(3,3-difluorocyclobutyl)-1-methyl-1H-pyrazol-3-yl)carbamate]	++ (“++” High Activity ≥ 0.7)
Cn1nc(NC(=O)NCC(F)F)c(C2CCC2)c1C1CC(F)(F)C1 [Compound 296, 1-(4-cyclobutyl-5-(3,3-difluorocyclobutyl)-1-methyl-1H-pyrazol-3-yl)-3-(2,2-difluoroethyl)urea]	++ (“++” High Activity ≥ 0.7)
Cn1nc(NC(=O)NCC2CC(F)(F)C2)c(C2CCC2)c1C1CC(F)(F)C1 [Compound 297, 1-(4-cyclobutyl-5-(3,3-difluorocyclobutyl)-1-methyl-1H-pyrazol-3-yl)-3-((3,3-difluorocyclobutyl)methyl)urea]	++ (“++” High Activity ≥ 0.7)
Cn1nc(NC(=O)[C@H]2CC2(F)F)c(C2CCC2)c1-c1cnc(C(F)(F)F)s1 [Compound 298, (R)-N-(4-cyclobutyl-1-methyl-5-(2-(trifluoromethyl)thiazol-5-yl)-1H-pyrazol-3-yl)-2,2-difluorocyclopropane-1-carboxamide]	− (“−” No Activity < 0.15)
